Experimental data reported in patent publication EP0748800A2, “Pyrimidinedione, pyrimidinetrione, triazinedione, tetrahydroquinazolinedione derivatives as alpha-1-adrenergic receptor antagonists” (priority 1995, dated 1996).

Key:
[1] = test system: α1-adrenoceptor; conditions: relative to rabbit isolated urinary bladder smooth muscle; agonist norepinephrine
Source text: The following describes in vitro assays for measuring the relative effect of test compounds on α1-adrenoceptor mediated contraction of rat, isolated aortic smooth muscle and rabbit, isolated urinary bladder smooth muscle.
Thoracic aorta were isolated from rats and immediately immersed in Krebs' solution (comprising in mM concentrations: NaCl, 118.5; NaHCO3, 25; dextrose, 5; KCl, 4.8; CaCl2, 2.5; MgSO4, 1.2; KH2PO4, 1.2; cocaine, 0.03; corticosterone, 0.03; propranolol, 0.001; ascorbic acid, 0.1; and indomethacin, 0.01). The aortas were dissected free from extraneous tissue and then a cross sectional ring approximately 3 mm in length was cut from the most proximal segment. […] A resting tension of 1 g was applied to each aortic ring and thereafter periodically readjusted to maintain a 1 g resting tension throughout the duration of the assay. […]
The tissue was then exposed to solution free of agonist, replacing the solution twice every 5 minutes for 30 minutes. After baseline tension was established and readjusted to 1 g, the tissue was exposed to bath solution containing the test compound, replacing the solution every 15 minutes for 60 minutes. […]
The concentration ratio (CR) of agonist necessary to produce equiactive responses in the absence and presence of the test compound was determined. […]

[2] = test system: anesthetized dog; assay: Dog in vivo intraurethral pressure assay (hypogastric nerve stimulation); conditions: i.v., increasing doses, relative to DAP
Procedure: (§1) The following describes an in vivo assay for measuring the relative effect of test compounds on hypogastric nerve stimulation-induced increases in intraurethral pressure and phenylephrine-induced increases in diastolic blood pressure in anesthetized dog.
(§2) Mongrel dogs (10 to 20 kg) were fasted for 12 to 18 hours and anesthetized with pentobarbital sodium (35 mg/kg, i.v.). An endotracheal tube was inserted and thereafter the lungs were mechanically ventilated with room air. The right femoral vein was isolated and cannulated with two polyethylene cannulae, one for the administration of a continuous infusion of pentobarbital sodium (5 to 10 mg/kg/hr) and the other for bolus administration of test substances. The right femoral artery was isolated and cannulated to the abdominal aorta with a fluid filled polyethylene cannula connected to an external pressure transducer for monitoring diastolic aortic pressure (DAP). The bladder was exposed via a ventral midline abdominal incision and emptied of urine through a 22 gauge needle. The bladder was cannulated through a stab incision with a water filled balloon catheter connected to an external pressure transducer for monitoring prostatic intraurethral pressure (IUP). The right hypogastric nerve (HGN) was carefully isolated and attached to a Dastre's electrode for nerve stimulation. […]

[3] = test system: α1-adrenoceptor; conditions: relative to human prostatic/bladder neck smooth muscle; agonist norepinephrine
Procedure: (§3) The following describes in vitro assays for measuring the relative effect of test compounds on α1-adrenoceptor mediated contractions of human, isolated arterial and urinary bladder smooth muscle.
Human arterial blood vessels were obtained post-mortem and immediately immersed in cold physiological saline solution. Within 24 hours of removal the isolated arterial tissue was placed in Krebs' solution (comprising in mM concentrations: NaCl, 118.5; NaHCO3, 25; dextrose, 5; KCl, 4.8; CaCl2, 2.5; MgSO4, 1.2; KH2PO4, 1.2; cocaine, 0.03; corticosterone, 0.03; propranolol, 0.001; ascorbic acid, 0.1; and indomethacin, 0.01). The arteries were dissected free from extraneous tissue and then cut into cross sectional rings approximately 3 mm in length. […] A resting tension of 1 to 1.5 g was applied to each ring and thereafter periodically readjusted to maintain a 1 g resting tension throughout the duration of the assay. […]
(§4) The tissue was then exposed to solution free of norepinephrine, replacing the solution twice every 5 minutes for 30 minutes. After baseline tension was established and readjusted to 1 g, the tissue was exposed to bath solution containing the test compound, replacing the solution every 15 minutes for 60 minutes. […]
(§5) The concentration ratio (CR) of norepinephrine necessary to produce equiactive responses in the absence and presence of the test compound was determined. […]

[4] = test system: anesthetized dog; conditions: in vivo, iv
Procedure: as §1, §2

[5] = test system: α1-adrenoceptor; conditions: relative to human isolated arterial smooth muscle; agonist norepinephrine
Source text: as §3
Human prostatic and bladder neck smooth muscle tissue was obtained following radical cystoprostatectomies or radical prostatectomies and immediately immersed in Krebs' solution. The prostatic and bladder tissue was dissected free from extraneous tissue and then strips of tissue 0.8 to 1.2 cm in length and 3 to 5 mm in width were cut and suspended vertically in 10 ml tissue baths and bathed in Kreb's solution maintained at 37°C and constantly aerated with a 95% O2 and 5% CO2 gas mixture. A resting tension of 0.75 to 1 g was applied to each muscle strip and thereafter periodically readjusted to maintain a 1 g resting tension throughout the duration of the assay. […]
as §4, §5

## COc1cc2nc(N3CCN(C(=O)c4ccco4)CC3)nc(N)c2cc1OC [prazosin]
[1]
  inhibition of α1-adrenoceptor mediated contractions of rat, isolated aortic smooth muscle: selectively inhibited
[2]
  inhibition of HGN stimulation-induced increases in IUP: inhibited increases in IUP and DAP in a similar fashion
[3]
  inhibition of α1-adrenoceptor mediated contractions of human, isolated arterial smooth muscle: non-selectively inhibited
[4]
  inhibition of phenylephrine-induced increases in DAP: inhibited increases in IUP and DAP in a similar fashion
[5]
  inhibition of α1-adrenoceptor mediated contractions of human, isolated prostatic and bladder neck smooth muscle: non-selectively inhibited
